Data on two molecules can be found in patent publication US20220040255A1, “CHEMOTHERAPEUTIC REMODELING OF THE GUT MICROBIOME” (THE SCRIPPS RESEARCH INSTITUTE, priority 2018, published 2022).

The nature of assay [1]: plasma cholesterol and lipoprotein profile. The format is in vivo, LDLr−/− mice. The note with it: for reduction in cholesterol in the CHD mice: CHD-fed mice; for HDL-cholesterol levels / levels of VLDL and LDL / reduction of plasma total cholesterol compared to the untreated WD group: WD; for HDL-cholesterol levels / levels of VLDL and LDL: peptide-treated animals; for reduction of plasma total cholesterol compared to the untreated WD group: two-week time point, oral administration. On the procedure: Animals and diets. LDL receptor-null (LDLr^−/−) mice on a C57BL/6J background were initially purchased from Jackson Laboratories (Bar Harbor, Me.) and were bred in house. Unless otherwise noted, all experiments were performed with 8-12 weeks old LDLr^−/− female mice. For studies involving analysis of the gut microbiome, the mice were rotated between cages and co-housed with the mice from different groups for at least one week before the beginning of each study to reduce the variation in the composition of gut microbiome caused by the housing environment. The mice were weaned at 4 weeks of age and were fed ad libitum a standard chow diet (Harlan Teklad 7019) until they were 10-weeks old, when they were switched to a high-fat diet (WD) containing 15.8% (wt/wt) fat, 1.25% (wt/wt) cholesterol, and no cholate (Harlan Teklad 94059). At the time that the WD was started, the cyclic peptide was added to the drinking water at a dose of 180 μM and the mice (female, n=8 per dosing group) were continued on WD for 10 weeks. The lyophilized peptide was dissolved in PBS (pH 7.4) containing 1% sucrose, resulting in a clear solution. The drinking water solution was replaced with fresh solution daily for c[wLwReQeR] (SEQ ID NO:11) or every other day for c[wLwKhShK] (SEQ ID NO:1). A control group of eight mice (female, n=8) was fed WD and provided vehicle (PBS with 1% sucrose) drinking water. The mice consumed approximately 4.0 mL of water per day per mouse, and there was no significant difference in water or food consumption between groups. All procedures involving live animals were approved by the Scripps Research Institute Institutional Animal Care and Use Committee.
Measurement of plasma cholesterol and liver enzyme activities. The mice were bled after an overnight fast after 2 and 10 weeks of treatment. The plasma samples were used to determine lipoprotein profiles and the levels of cholesterol, alanine aminotransferase (ALT), and aspartate aminotransferase (AST). Measurements of plasma levels of cholesterol, ALT, and AST were performed as described in Zhao et al., ACS Cent. Sci. 3, 639-646, 2017. Briefly, plasma was separated from whole blood immediately by centrifugation of the blood samples at 5,000 rpm for 10 min at 4° C., and was then stored at −80° C. Plasma total cholesterol was measured using an enzymatic fluorometric method kit (Amplex® red cholesterol assay kit, No. A12216, Life Technologies) according to the manufacturer's instructions. Plasma ALT and AST concentrations were measured using Infinity ALT (GPT) and AST (GOT) liquid stable assays, respectively, which are colorimetric kinetic assays (Thermo Scientific). Assays were performed in accordance with the manufacturer's recommendations, adjusting the reagent volumes (20 μL plasma+200 μL reagent, 0.69 cm light pathlength of the solution in the well) for analysis of samples in 96-well flat-bottom microplate format.
Plasma lipoprotein profile. Pooled plasma (240 μL total, 30 μL from each, n=8 fasted mice per group) from the two-week blood draw was used for fast protein liquid chromatography (FPLC) analysis. Lipoproteins were separated by using 3 Superdex 200 10/30 columns connected in series (GE Healthcare). The plasma was centrifuged at 11,000 rpm for 10 min at room temperature to remove particulates (floating material was gently mixed into liquid before removing the supernatant for FPLC injection). 200 μL of the pooled plasma was injected on the system eluted with 10 mM tris-HCl buffer, pH 7.4, containing 1 mM EDTA and 150 mM NaCl; a flow rate of 0.5 ml/min and fraction size of 0.5 mL were used.

A further assay relates to atherosclerotic lesions. The assay can be described thus: analysis of atherosclerosis (whole aorta en face, aortic sinus). The format is in vivo, LDLr−/− mice. As to conditions: completion of the 10-week study. The procedure:
Analysis of atherosclerosis. Atherosclerotic lesion severity was assessed in the aortae as previously described. Briefly, at euthanasia, animals were perfused with PBS, followed by 4% formaldehyde (10% UltraPure EM Grade from Polysciences diluted in PBS, pH 7.2). For en face analysis, the entire mouse aorta was dissected from the proximal ascending aorta to the bifurcation of the iliac artery by using a dissecting microscope. Adventitial fat was removed, and the aorta was opened longitudinally, pinned flat onto black dissecting wax, stained with Sudan IV, and photographed at a fixed magnification. The photographs were digitized, and total aortic areas and lesion areas were calculated by using Adobe Photoshop and NIH Image J software. The results were reported as a percentage of the total aortic area that contained lesions.
As a second assessment of atherosclerosis, lesions of the aortic root (heart sinus) were analyzed^55. Utilizing stereological principles, lesion volume was estimated across a fixed distance of the aortic sinus. After 10 min fixation in 4% paraformaldehyde, hearts were cut at an angle perpendicular to the atria of the heart and embedded in OCT (Tissue-Tek). Frozen hearts were sectioned on a Leica cryostat, with 10-μm sections collected from the beginning of the aortic sinus (defined as when a valve leaflet became visible) to 500 μm below the beginning of the sinus. […] Sections were collected in duplicate at 50-μm intervals. Sections were stained with oil red O, counterstained with Gill hematoxylin 1 (Fischer Scientific International), photographed, and digitized for lesion analysis. Scoring of valve lesion areas was done for each of the 3 valve cusps individually. Lesion areas found only within the valve cusp were measured. […] Lesion volume was calculated from an integration of the measured cross-sectional areas. Prediction of the coefficient of error (CE) in approximating lesion volume was computed using the Cavalieri estimator derived from a covariogram analysis of an ordered set of estimates of cross-sectional areas. This yielded CE values of less than 10% that were acceptable for a stereological computation of lesion volume.

The subject of assay [2] is Foxp3+ regulatory T cell (Treg) population. The assay can be described thus: quantification of regulatory T cells in lamina propria. In kind it is in vivo, mice. The text has this: Quantification of regulatory T cells. Lamina propria (LP) immune cells from the small intestine were isolated using lamina propria dissociation kit (Miltenyi Biotec) following the manufacturer's instruction. All antibodies and flow cytometry reagents were obtained from Thermo Fisher. We used FITC anti-CD4 (RM4-5), PE anti-Foxp3 (FJK-16s), PE-Cyanine 7 anti-GATA3 (TWAJ), APC anti ROR gamma t (AFKJS-9), APC-efluor780 anti-Helios (22F6) and e-fluor 450 anti-CD3 (17A2) antibodies. To block non-antigen specific binding of immunoglobulins and discriminate live from dead cells, LP cell suspensions were incubated with mouse BD Fc block (BD Biosciences) and e-fluor 506 fixable viability dye (Thermo Fisher) for 30 minutes on ice. For surface staining, the cells were incubated with antibodies for 25 min, washed and fixed in fixation/permeabilization solution (Thermo Fisher). After being washed with transcription factor wash buffer (Thermo Fisher), cells were stained intracellularly for 45 min at room temperature, washed, and resuspended in PBS. Samples were read in a FACs canto analyzer (BD Biosciences) and analyzed with FACs Diva software v 8.0 (BD Biosciences). Total LP cell numbers were quantified to calculate regulatory T cell ratios. Flow Jo v10 software was used for dot plots generation and final analysis.

[3] abbreviates: wild-type and LDLr−/− mice fed a WD.

Where a SMILES comes first, the peptide text is derived from it. [ ]: non-standard residue; d: D form.

As for `CC(C)C[C@@H]1NC(=O)[C@@H](Cc2c[nH]c3ccccc23)NC(=O)[C@H](CCCNC(=N)N)NC(=O)[C@@H](CCC(=O)O)NC(=O)[C@H](CCC(N)=O)NC(=O)[C@@H](CCC(=O)O)NC(=O)[C@H](CCCNC(=N)N)NC(=O)[C@@H](Cc2c[nH]c3ccccc23)NC1=O` [c[wLwReQeR]] (cyclo([dW]L[dW]R[dE]Q[dE]R)), in assay [1], the “reduction in cholesterol in the CHD mice” value is “no analogous peptide-mediated reduction”; the HDL-cholesterol levels entry was “higher”; the “levels of VLDL and LDL” value is listed as “marked reduction”; the “reduction of plasma total cholesterol compared to the untreated WD group” value is listed as 36%. Besides, in the assay on atherosclerotic lesions, the “reduction in atherosclerotic lesions, whole aorta lesion area” value worked out at 48% and the “reduction of aortic sinus lesion volume” value turned out to be 37%. For the same molecule, in assay [2], the “composition of Foxp3+ regulatory T cell (Treg) population” value was “significantly altered”. Also, in assay [2] (setting [3]), the “Helios+/RORγt+ Treg ratio” value is “increased” and the “Helios+/Th17 ratio” value is “increased”.
For `CC(C)C[C@@H]1NC(=O)[C@@H](Cc2c[nH]c3ccccc23)NC(=O)[C@H](CCCCN)NC(=O)[C@@H](Cc2c[nH]cn2)NC(=O)[C@H](CO)NC(=O)[C@@H](Cc2c[nH]cn2)NC(=O)[C@H](CCCCN)NC(=O)[C@@H](Cc2c[nH]c3ccccc23)NC1=O` [c[wLwKhShK]] (cyclo([dW]L[dW]K[dH]S[dH]K)), in assay [1], the “reduction in cholesterol in the CHD mice” value is “no analogous peptide-mediated reduction”; the HDL-cholesterol levels entry was “higher”; the “levels of VLDL and LDL” value was “marked reduction”; the “reduction of plasma total cholesterol compared to the untreated WD group” value was 37%. In the assay on atherosclerotic lesions, the “reduction in atherosclerotic lesions, whole aorta lesion area” value was determined as 37% and the “reduction of aortic sinus lesion volume” value is reported as 44%.
